{"source": "patent US20060063930A1", "about": "“Compositions and methods comprising proteinase activated receptor antagonists” (priority 2004, published 2006)", "note": "Where a name gives a salt, the structure may show the parent alone. Where no end group is shown, it is not given here. [ ]: non-standard residue; d: D form. Phe(4-NH2) = Nc1ccc(C[C@H](N)C(=O)O)cc1; Sta = CC(C)C[C@H](N)[C@@H](O)CC(=O)O; Dab = NCC[C@H](N)C(=O)O; Imid = not defined here; Dap = NC[C@H](N)C(=O)O"}
{"test_system": "PAR-2", "test": "Inhibition of PAR-2 activating peptide (AP2) calcium signaling in cells pretreated with antagonist", "assay_type": "cell-based, human", "set-up": "key to PAR-2 AP2 Signaling Treated/Control (T/C) / PAR-2 AP2 Signaling Treated/Control: AUC of calcium mobilization, treated ÷ control wells", "conditions": "mimetic antagonists; AUC of calcium mobilization treated/control; initially screened at 1 mM compound", "description": "(§1) In order to assess the potential of peptides and molecules selected above to block PAR-2 signaling, cells were pretreated with potential antagonist peptides for a predetermined amount of time and were subsequently treated with various GPCR agonists. Confluent Lewis lung carcinoma (LLC) cells were loaded for 30-60 minutes with the fluorescent dye Fluo-4. Final concentration 4 uM Fluo-4, 0.02% pluronic acid in physiological buffer. Cells were then washed with assay buffer, (HBSS containing 1 mM CaCl2, 1 mM MgSO4, and 2.5 mM probenecid). Cells were stimulated with various doses of PAR-2 activating peptide, PAR-1 activating peptide or ATP. Fluorescence was monitored using a Wallac 1470 fluorescent plate reader. (See Al-ani et. al Journal of Pharmacology and Experimental Therapeutics 290:2, 753-760). Additional compound screening was performed using U87-MG human glioma cells. In this assay cells were labeled with FLIPR Calcium 3 dye (Component A), which was dissolved in 10 mls of Assay Buffer without Probenecid. Loading buffer was prepared by diluting Component A with an additional 90 mls of Assay Buffer without Probenecid, giving a total volume of a 100 ml. For plate loading, 11 mls of FLIPR Calcium 3 dye (Component A) is placed into a 15 ml conical tube+110 μl of 250 mM Probenecid, at a final in-well working volume of 2.5 mM. Finally, 50 μl of Calcium 3 dye was added wells containing 100 μl media, and incubated 1 hr, 37° C., 5% CO2. Calcium signaling was then measured using a Flexstation II (Molecular Devices) following manufacturer's instructions.\n(§2) Potential antagonist compounds were initially screened at 1 mM compound concentration. Those compounds with activity were then subjected to additional confirmatory testing. Activity is reported as treated/controlled (T/C) where the area under the curve (AUC) of calcium mobilization plots in treated wells is divided by the AUC of calcium mobilization plots in control wells to generate a measure of inhibition."}
{"compound": "Cl.O=C(CC1CCCCC1)N1CCN(C(=O)C2CCCNC2)CC1", "note": "(stereo not drawn) [ENMD-1773, N1-2-cyclohexylethanoyl-N-4-piperidine-3-carbonyl-piperazine hydrochloride]", "PAR-2 AP2 Signaling Treated/Control": 0.85}
{"compound": "CC(C)CCCC(=O)N1CCN(C(=O)CCCCCN)CC1", "note": "[ENMD-1038, N^1-[5′-methylhexanoyl]-N^4-[6′-aminohexanoyl]-piperazine]", "PAR-2 AP2 Signaling Treated/Control": 0.35}
{"compound": "CC(C)COc1ccc(C(=O)NCCCCN)cc1", "note": "[ENMD-1405, N-(4-aminobutyl)-4-isobutoxy-benzamide]", "PAR-2 AP2 Signaling Treated/Control": 0.13}
{"compound": "NCCCCNC(=O)c1cnc(NCC2CCCCC2)cn1", "note": "[ENMD-1571, 4-aminobutyl-6-cyclohexanemethylamino-2-pyrazine amide]", "PAR-2 AP2 Signaling Treated/Control": 0.81}
{"compound": "Nc1ccc(CCn2c(=O)n(CCC3CCCCC3)c3ccccc32)cc1", "note": "[ENMD-1574, 1-(4-aminophenethyl)-3-(2-cyclohexylethyl)-1H-benzo[d]imidazole-2(3H)-one]", "PAR-2 AP2 Signaling Treated/Control": 0.01}
{"compound": "CC(C)CC(=O)N1CCOC(C(=O)NCCCCCCN)C1", "note": "(stereo not drawn) [ENMD-1522, 4-(3-Methyl-butyryl)-morpholine-2-carboxylic acid (6-amino-hexyl)-amide]", "PAR-2 AP2 Signaling Treated/Control": 1.00}
{"compound": "O=C(Cc1ccncc1)N1CCN(C(=O)CC2CCCCC2)CC1", "note": "[ENMD-1079, 1-(4-(2-cyclohexylacetyl)piperazin-1-yl)-2-(pyridin-4-yl)-acetaldehyde]", "PAR-2 AP2 Signaling Treated/Control": 0.90}
{"compound": "NCCCCCCn1cc(CCC2CCCCC2)nn1", "note": "[ENMD-1520, 1-(6-aminohexyl)-4-(2-cyclohexylethyl)-1,2,3-triazole]", "PAR-2 AP2 Signaling Treated/Control": 0.36}
{"compound": "CC(C)CNc1nc2ccc(C(=O)NCCCCCCN)cc2[nH]1", "note": "[ENMD-1525, 2-Isobutylamino-3H-benzoimidazole-5-carboxylic acid (6-amino-hexyl)-amide]", "PAR-2 AP2 Signaling Treated/Control": 0.52}
{"compound": "CC(C)CNC(=O)Cc1csc(NC(=O)CCCCCN)n1", "note": "[ENMD-1554, 6-amino-hexanoic acid [4-(isobutylcarbamoyl-methyl)-thiazol-2-yl]-amide]", "PAR-2 AP2 Signaling Treated/Control": 0.44}
{"compound": "CCCCC(=O)N1CCN(C(=O)CCCCCN)CC1", "note": "[ENMD-1040, N^1-pentanoyl-N-4-[6′-aminohexanoyl]-piperazine]", "PAR-2 AP2 Signaling Treated/Control": 1.04}
{"compound": "CC(C)CNC(=O)[C@@H]1CC[C@@H](NC(=O)CCCCCN)C1", "note": "[ENMD-1504, N-isobutyl-3R-(6-aminohexanamido)-cyclopentane-1R-carboxamide]", "PAR-2 AP2 Signaling Treated/Control": 0.71}
{"compound": "CC(C)C(=O)N1CCN(C(=O)CCCCCN)CC1", "note": "[ENMD-1035, N′-[2′-methylpropanoyl]-N^4-[6′-aminohexanoyl]-piperazine]", "PAR-2 AP2 Signaling Treated/Control": 0.32}
{"compound": "NCCCCCCNC(=O)C1CCS(=O)(=O)N1CCC1CCCCC1", "note": "(stereo not drawn) [ENMD-1547, N-(2-cyclohexyl)ethylisothiasolidine-1,1-dioxide-3-carboxylic acid-6-aminohexylamide]", "PAR-2 AP2 Signaling Treated/Control": 0.24}
{"compound": "NCCCCCCNC(=O)c1cccn1CC1CCCCC1", "note": "[ENMD-1540, N-(6-aminohexyl)-1-(2-cyclohexylmethyl)-2-pyrrolecarboxamide]", "PAR-2 AP2 Signaling Treated/Control": 0.05}
{"compound": "Cl.O=C(CC1CCCCC1)Nc1ccc(NC(=O)C2CCNCC2)cc1", "note": "[ENMD-1772, N-(4-(2-cyclohexylacetamido)phenyl) piperidine-4-carboxamide hydrochloride]", "PAR-2 AP2 Signaling Treated/Control": 0.73}
{"compound": "NCCCCCCNC(=O)c1cc(CNC(=O)CC2CCCCC2)on1", "note": "[ENMD-1557, 5-[(2-Cyclohexyl-acetylamino)-methyl]-isoxazole-3-carboxylic acid (6-amino-hexyl)-amide]", "PAR-2 AP2 Signaling Treated/Control": 0.52}
{"compound": "NCCCCCC(=O)N1CC(NC(=O)CC2CCCCC2)C1", "note": "[ENMD-1514, 2-cyclohexylacetamid-N-(6-amino-1-hexanoylazetidin-3-yl)]", "PAR-2 AP2 Signaling Treated/Control": 0.53}
{"compound": "CC(C)CC(=O)Nc1ccc(NC(=O)CCCCCN)cc1", "note": "[ENMD-1391, N-(4-(3-methylbutanamido)phenyl)-6-aminohexanamide]", "PAR-2 AP2 Signaling Treated/Control": 0.01}
{"compound": "CC(C)Nc1ccc(CCn2c(=O)n(CCC3CCCCC3)c3ccccc32)cc1", "note": "[ENMD-1564, 1-[4-(isopropylamine)-phenethyl]-3-(2-cyclo-hexylethyl)-1H-benzo[d]imidazole-2(3H)-one]", "PAR-2 AP2 Signaling Treated/Control": 1.16}
{"compound": "CC(C)Cn1cccc1C(=O)NCCCCCCN", "note": "[ENMD-1537, N-(6-aminohexyl)-1-(2-methylpropyl)-2-pyrrolecarboxamide]", "PAR-2 AP2 Signaling Treated/Control": 0.91}
{"compound": "Nc1ccc(CC(=O)N2CCN(C(=O)CC3CCCCC3)CC2)cc1", "note": "[ENMD-1070, N^1-2-cyclohexylethanoyl-N^4-[2-(4-aminophenyl)-ethanoyl]-piperazine]", "PAR-2 AP2 Signaling Treated/Control": 0.05}
{"compound": "O=C(Cc1ccccn1)N1CCN(C(=O)CC2CCCCC2)CC1", "note": "[ENMD-1069, 1-(4-(2-cyclohexylacetyl)piperazin-1-yl)-2-(pyridin-2-yl)-acetaldehyde]", "PAR-2 AP2 Signaling Treated/Control": 0.94}
{"compound": "NCCCCNc1ccc(C(=O)NCC2CCCCC2)cn1", "note": "[ENMD-1543]", "PAR-2 AP2 Signaling Treated/Control": 0.55}
{"compound": "Nc1ccc(CC(=O)N2CCN(C(=O)Cc3ccccc3)CC2)cc1", "note": "[ENMD-1075, N^1-2-phenylethanoyl-N^4-[2-(4-aminophenyl)-ethanoyl]-piperazine]", "PAR-2 AP2 Signaling Treated/Control": 0.71}
{"compound": "CC(C)CNC(=O)c1ccc(-c2ccc(NC(=O)CCCCCN)cc2)cc1", "note": "[ENMD-1527, 4′-(6-amino-hexanoylamino)-biphenyl-4-carboxylic acid isobutyl-amide]", "PAR-2 AP2 Signaling Treated/Control": 0.64}
{"compound": "CCCCCC(=O)N1CCN(C(=O)CCCCCN)CC1", "note": "[ENMD-1039, N^1-hexanoyl-N^4-[6-aminohexanoyl]-piperazine]", "PAR-2 AP2 Signaling Treated/Control": 1.34}
{"compound": "NCCCCNC(=O)c1ccc(NC(=O)C2CCCCC2)cc1", "note": "[ENMD-1511, N-(4-aminobutyl)-4-(cyclohexanecarboxamido)-benzamide hydrochloride]", "PAR-2 AP2 Signaling Treated/Control": 0.13}
{"compound": "Cl.N[C@H]1CC[C@@H](C(=O)N2CCN(C(=O)CC3CCCCC3)CC2)CC1", "note": "[ENMD-1781, N^1-2-cyclohexylethanoyl-N-4-cis-4-amino-cyclohexane-carbonyl piperazine hydrochloride]", "PAR-2 AP2 Signaling Treated/Control": 0.71}
{"compound": "CC(C)CCn1c(=O)n(CCCCCCN)c2ccccc21", "note": "[ENMD-1517, 1-(6-aminohexyl)-3-[(3-methyl)butyl]benzimidazol(2)-one]", "PAR-2 AP2 Signaling Treated/Control": 0.52}
{"compound": "NCCC1CCN(c2cnc(C(=O)NCCC3CCCCC3)cn2)CC1", "note": "[ENMD-1778, cyclohexylethyl-6-(4-aminoethylpiperdine)-2-pyrazine amide]", "PAR-2 AP2 Signaling Treated/Control": 0.05}
{"compound": "Cl.O=C(CC1CCCCC1)Nc1ccc(NC(=O)C2CCCNC2)cc1", "note": "(stereo not drawn) [ENMD-1771, N-(4-(2-cyclohexylacetamido)phenyl) piperidine-3-carboxamide hydrochloride]", "PAR-2 AP2 Signaling Treated/Control": 0.05}
{"compound": "CC(C)CC(=O)N1CCN(C(=O)Cc2cnc[nH]2)CC1", "note": "[ENMD-1066, 1-(4-(2-(1H-imidazol-4-yl)acetyl)piperazin 1-yl)-3-methylbutan-1-amide hydrochloride]", "PAR-2 AP2 Signaling Treated/Control": 0.20}
{"compound": "Cl.NCCCOc1ccc(OCC2CCCCC2)cc1", "note": "[ENMD-1567, 3-(4-(cyclohexylmethoxy)phenoxy)propan-1-amine hydrochloride]", "PAR-2 AP2 Signaling Treated/Control": 0.08}
{"test_system": "PAR-2", "test": "Inhibition of PAR-2 activating peptide (AP2) calcium signaling in cells pretreated with antagonist", "assay_type": "cell-based, human", "set-up": "key to PAR-2 AP2 Signaling Treated/Control (T/C) / PAR-2 AP2 Signaling Treated/Control: AUC of calcium mobilization, treated ÷ control wells", "conditions": "peptides; AUC of calcium mobilization treated/control; initially screened at 1 mM compound", "description": "as §1, §2"}
{"compound": "L-Sta-K (Leu-[Sta]-Lys) [ENMD-1056]", "PAR-2 AP2 Signaling Treated/Control (T/C)": 1.35}
{"compound": "L-Imid-K (Leu-[Imid]-Lys; reading uncertain; also: printed as L-Imid-K) [ENMD-1062]", "PAR-2 AP2 Signaling Treated/Control (T/C)": 0.94}
{"compound": "IG-Dab (Ile-Gly-[Dab]) [ENMD-1024, Dab=diamino butanoic acid]", "PAR-2 AP2 Signaling Treated/Control (T/C)": 0.27}
{"compound": "LIGH [ENMD-1054]", "PAR-2 AP2 Signaling Treated/Control (T/C)": 0.83}
{"compound": "IGR [ENMD-1023]", "PAR-2 AP2 Signaling Treated/Control (T/C)": 0.23}
{"compound": "IG-Dap (Ile-Gly-[Dap]) [ENMD-1025, Dap=diamino proprionic acid]", "PAR-2 AP2 Signaling Treated/Control (T/C)": 0.31}
{"compound": "LIGS [ENMD-1049]", "PAR-2 AP2 Signaling Treated/Control (T/C)": 0.64}
{"compound": "IG-dK (Ile-Gly-[dK]) [ENMD-1087]", "PAR-2 AP2 Signaling Treated/Control (T/C)": 0.33}
{"compound": "IGK-amide (Ile-Gly-Lys-NH2) [ENMD-1021]", "PAR-2 AP2 Signaling Treated/Control (T/C)": 0.67}
{"compound": "LPGK [ENMD-1053]", "PAR-2 AP2 Signaling Treated/Control (T/C)": 0.89}
{"compound": "LIGR [ENMD-1022]", "PAR-2 AP2 Signaling Treated/Control (T/C)": 0.26}
{"compound": "LIG-(4-aminoF) (LIG[Phe(4-NH2)]) [ENMD-1030]", "PAR-2 AP2 Signaling Treated/Control (T/C)": 0.05}
{"compound": "LIGN [ENMD-1047]", "PAR-2 AP2 Signaling Treated/Control (T/C)": 0.88}
{"compound": "LIGD [ENMD-1045]", "PAR-2 AP2 Signaling Treated/Control (T/C)": 0.39}
{"compound": "L-Sta-GK (L[Sta]GK) [ENMD-1057]", "PAR-2 AP2 Signaling Treated/Control (T/C)": 1.40}
{"compound": "LIGE [ENMD-1046]", "PAR-2 AP2 Signaling Treated/Control (T/C)": 0.34}
{"compound": "L-Imid-GK (L[Imid]GK; reading uncertain; also: printed as L-Imid-GK) [ENMD-1063]", "PAR-2 AP2 Signaling Treated/Control (T/C)": 0.94}
